Results taken from PubChem BioAssay (NCI).
Several values for one entry are separate records, joined by “and”; a condition that tells them apart may be missing. Equal entries are not always repeated.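 Interpolation was linear, between the two tested concentrations surrounding the appropriate level; five concentrations were tested over 48 hours in 96-well plates. At the GI50, growth is halved. The concentration for full growth arrest is given as TGI.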

What was measured:
Assay in all cases: DTP human tumour cell line panel, 48 h
[1] = system: DU-145 prostate
[2] = system: MCF7 breast
[3] = system: SF-539 CNS
[4] = system: CAKI-1 renal
[5] = system: SK-MEL-2 melanoma
[6] = system: A498 renal
[7] = system: UACC-62 melanoma
[8] = system: HT29 colon
[9] = system: M14 melanoma
[10] = system: SR leukemia

| SMILES | TGI [1] | TGI [2] | TGI [3] | TGI [4] | TGI [5] | TGI [6] | TGI [7] | TGI [8] | TGI [9] | TGI [10] | GI50 [1] | GI50 [2] | GI50 [3] | GI50 [4] | GI50 [5] | GI50 [6] | GI50 [7] | GI50 [8] | GI50 [9] | GI50 [10] |
| --- | --- | --- | --- | --- | --- | --- | --- | --- | --- | --- | --- | --- | --- | --- | --- | --- | --- | --- | --- | --- |
| OCc1ccn2c1[C@@H](O)CC2 | > 100 µM | > 100 µM | > 100 µM | > 100 µM | > 100 µM | > 100 µM | > 100 µM | > 100 µM | > 100 µM | > 100 µM |  |  |  |  |  |  |  |  |  |  |
| Cn1cc(C2=C(c3cccc(Br)c3)C(=O)NC2=O)c2ccccc21 | > 25 µM | > 25 µM | > 25 µM | > 25 µM | > 21.6 µM | 17.9 µM | > 25 µM | > 25 µM | > 25 µM | > 25 µM | > 25 µM | 6.08 µM | 12.5 µM | 9.63 µM | 11.6 µM | 4.51 µM | 11.3 µM | > 15 µM | 17.1 µM | 7.33 µM |
| N#CC1=C(N)Oc2cc(O)ccc2C1c1cccc2ccccc12 (stereo not given) | 29.7 µM | 24.5 µM | 36.5 µM | 27 µM | 24.3 µM | 22.7 µM | 27.3 µM | 27 µM | 21.6 µM | 14.8 µM | 12.1 µM | 8.69 µM | 16.5 µM | 8.55 µM | 11.7 µM | 5.25 µM | 12.6 µM | 8.89 µM | 5.72 µM | 3.26 µM |
| COc1cc2c3c(n(CCCOC(=O)C(F)(F)F)c(=O)c2cc1OC)-c1cc2c(cc1C3=O)OCO2 | 1.71 µM | > 29.2 µM | 0.0699 µM |  | > 100 µM | 20.6 µM |  | > 35.1 µM |  |  |  |  | < 0.01 µM | < 0.01 µM | 7.3 µM | 0.375 µM | < 0.01 µM |  | < 0.0123 µM |  |
| O=C(Nc1ccc(-n2ccc3c(NC(=O)c4ccccc4)nccc32)cc1)Nc1ccc(Cl)c(Cl)c1 | 3.92 µM | 2.37 µM | 2.41 µM | 6.88 µM | 4.87 µM | 7.58 µM | 2.83 µM | 2.33 µM | 2.93 µM | 0.932 µM | 1.57 µM | 1.1 µM | 0.557 µM | 1.65 µM | 1.98 µM | 2.58 µM | 1.23 µM | 0.664 µM | 1.47 µM | 0.132 µM |
| COc1ccc(O)c(C(=O)c2ccc(C(=O)N[C@H]3CCCNC[C@@H]3NC(=O)c3ccncc3)cc2)c1F | 24.5 µM | > 25 µM | 7.68 µM | > 25 µM | > 22.4 µM | 3.26 µM | > 25 µM | > 25 µM | > 22.4 µM | 12.7 µM | 7.28 µM | 0.823 µM | 0.624 µM | > 25 µM | 4.2 µM | 0.331 µM | 9.26 µM | 16.3 µM | 6.43 µM | 0.63 µM |
| CC(C)(S)C(N)C(=O)O (stereo not given) | > 5000 µM | 2200 µM and > 100 µM | 4370 µM and > 100 µM | 2570 µM and > 100 µM | > 5000 µM | > 100 µM | > 5000 µM | > 5000 µM | > 5000 µM | > 5000 µM | 1600 µM | 994 µM | 1420 µM | 983 µM | 2390 µM |  | 4760 µM | > 5000 µM | 4370 µM | 1840 µM |
| Cc1nc2sc3c(c2c(=O)[nH]1)CCCC3 | > 100 µM | > 100 µM | > 100 µM | > 100 µM | > 100 µM | > 100 µM | > 100 µM | > 100 µM | > 100 µM | 81.1 µM |  |  |  |  |  |  |  |  |  |  |
| NC(=O)OCCn1cc(-c2nc(-c3c[nH]c4ncccc34)cs2)c2ccccc21 | 26.1 µM | 5.31 µM | 4.5 µM | 8.54 µM | 3.96 µM | 2.87 µM | 5.41 µM | 8.55 µM | 4.53 µM | 7.05 µM | 3.07 µM | 0.989 µM | 1.61 µM | 2.42 µM | 1.52 µM | 0.905 µM | 1.57 µM | 1.77 µM | 1.33 µM | 1.08 µM |
| CCCOc1ccc2sc(NC(=O)OC)nc2c1 | > 100 µM | > 100 µM | > 100 µM | > 100 µM | > 100 µM | > 27.1 µM | > 100 µM | > 100 µM | > 100 µM | > 100 µM | 4.05 µM | 1.08 µM | 2.91 µM | 2.87 µM | 2.05 µM | 2.34 µM | 3.64 µM | 0.465 µM | 1.26 µM | 0.36 µM |
| O=C(CSC1CCc2ccccc21)N/N=C/c1ccccc1O (stereo not given) | > 100 µM | > 100 µM | 17.2 µM | 12.7 µM | 24.6 µM | 44 µM | 13.6 µM | 52.6 µM | 63 µM | 34.4 µM | 6.09 µM | 2.89 µM | 3.03 µM | 1.93 µM | 5.26 µM | 14.7 µM | 2.82 µM | 18.3 µM | 3.7 µM | 4.03 µM |
| CCN(Cc1ccccc1C)c1ccc(CO)c(Cl)c1 | 35.4 µM | 14.7 µM | 29.5 µM | 32 µM | 18.1 µM | 0.114 µM | 6.27 µM | 26.3 µM | 31.2 µM | 32.6 µM | 16.5 µM | 2 µM | 15 µM | 7.88 µM | 4.47 µM | 0.0283 µM | 0.423 µM | 9.97 µM | 15.3 µM | 9.29 µM |
| C1=C\COCc2cc(ccc2OCCN2CCCC2)Nc2nccc(n2)-c2cccc(c2)COC/1 | 5.53 µM | 3.37 µM | 5.71 µM | 4.15 µM | 5.51 µM | 5.32 µM | 5.2 µM | 5.04 µM | 4.72 µM | 1.62 µM | 1.55 µM | 0.772 µM | 3.11 µM | 0.971 µM | 2.49 µM | 1.86 µM | 2.02 µM | 1.18 µM | 1.75 µM | 0.306 µM |
| O=C(c1ccc(/C=C/c2n[nH]c3ccccc23)cc1)N1CCNCC1 | > 10 µM and 27.5 µM | 2.46 µM and 15.5 µM | 6.74 µM and 9.92 µM | > 10 µM and 9.11 µM | > 10 µM and 20.5 µM | 8.87 µM and 21.5 µM | 3.83 µM and 24.8 µM | 4.77 µM and 15.3 µM | 3.22 µM and 16.9 µM | 4.23 µM and 10.3 µM | 5.76 µM and 4.15 µM |  | 2.18 µM and 1.83 µM | 4.96 µM and 1.35 µM | 4.53 µM and 6.85 µM | 2 µM and 7.83 µM | 1.72 µM and 11.3 µM | 2.04 µM and 2.44 µM | 1.66 µM and 3.75 µM | 1.85 µM and 0.407 µM |
